Assay results from patent US20250134874A1, “PHARMACEUTICAL FORMULATIONS COMPRISING 3-({[(4R)-7-{METHYL[4-(PROPAN-2-YL)PHENYL]AMINO}-3,4-DIHYDRO-2H-1-BENZOPYRAN-4-YL]METHYL}AMINO)PYRIDINE-4-CARBOXYLIC ACID” (TACHYON THERAPEUTICS, INC., priority 2021, published 2025).

Tested on: 301 cancer cell lines from different tumor types (OncoPanel; HD Biosciences)
Assay: 2D cell viability inhibition assay (CellTiter-Glo) in cancer cell line panel
Assay type: cell-based
Settings: Homo sapiens
Experimental: In a larger screening study, compound 1 was evaluated across a broad cancer cell line panel (OncoPanel; HD Biosciences) composed of 301 cancer cell lines from different tumor types.
2D cell viability inhibition assays were performed in multiwell plates seeded with cells from the panel. After seeding, the plates were cultured overnight in a humidified incubator at 37° C. to promote adherence. Assays were initiated in individual wells by adding either DMSO as a vehicle control, growth media as a blank, or serially diluted compound 1 (10 μM to 0.0005 μM with 1:3 serial dilution). Cultures were incubated for 168 hours after which the number of viable cells in each test well was assessed using the CellTiter-Glo® Luminescent Cell Viability Assay. Luminescence readouts were performed using an EnVision® Multilabel Reader and the compound 1 readouts were normalized to the DMSO control readouts, expressed as a percent of the control. Outliers were flagged out by visual inspection. Percent of control was plotted against the corresponding compound 1 concentration and the absolute IC50 value was determined using four-parameter logistic non-linear regression as the concentration where inhibition was 50% of the control. For maximum inhibition <50%, the absolute IC50 was reported as >10. In addition to EC50 and IC50, AUC was determined and was normalized to the area corresponding to theoretical no-inhibition (the rectangular area defined by the compound dose range and 0 to 100 in y). Emax was recorded as the minimum in y with the compound dose range. For those cell lines where Emax>40, EC50 was manually set to 10 μM. A hierarchical clustering algorithm based on Euclidean distance between the standardized input values and “Ward.D” method as implemented in R hclust function was used to visualize the compound 1 cellular potency data. The sensitive/moderate/resistant calls for each cell line was determined by visually inspecting the resulting clustering dendrogram. All the analyses were done in R Core Team.

## CC(C)c1ccc(N(C)c2ccc3c(c2)OCC[C@H]3CNc2cnccc2C(=O)O)cc1 [Compound 1, 3-({[(4R)-7-{methyl[4-(propan-2-yl)phenyl]amino}-3,4-dihydro-2H-1-benzopyran-4-yl]methyl}amino)pyridine-4-carboxylic acid]
KYSE-30, KYSE30 cell line
  EC50: ≥ 10000 nM
  IC50: 2.43 nM
KYSE-70, 168 h, KYSE70, oesophagus, squamous cell carcinoma, 168 hours
  IC50: > 10000 nM
KYSE-150, KYSE150 cell line
  EC50: 4.41 nM
  IC50: 5.1 nM
KYSE-270, KYSE270 cell line
  EC50: 5.11 nM
  IC50: 5.35 nM
KYSE-410, KYSE410 cell line
  EC50: 5.47 nM
  IC50: 8.25 nM
KYSE-510, KYSE510 cell line
  EC50: 3.42 nM
  IC50: 3.4 nM
Kasumi 1, 168 h, KASUMI1, haematopoietic and lymphoid tissue, acute myeloid leukaemia, 168 hours
  IC50: > 10000 nM
LNCaP, LNCAP cell line
  EC50: 3.54 nM
  IC50: 4.65 nM
LS-411N, LS411N cell line
  EC50: 16.8 nM
  IC50: 16.7 nM
LoVo, LOVO cell line
  IC50: 57.8 nM
Lu-65, LU65 cell line
  EC50: 7.19 nM
  IC50: 10.6 nM
Lu-99, 168 h, LU99, lung, large cell carcinoma, 168 hours
  IC50: > 10000 nM
MC116, MC116 cell line
  EC50: 5.21 nM
  IC50: 4.6 nM
MCF7, MCF7 cell line
  IC50: 435 nM
MDA-MB-157, 168 h, MDAMB157, breast, ductal carcinoma, 168 hours
  IC50: > 10000 nM
MDA-MB-175-VII, 168 h, MDAMB175VII, breast, ductal carcinoma
  IC50: > 10000 nM
MDA-MB-231, 168 h, MDAMB231, breast, NS, 168 hours
  IC50: > 10000 nM
MDA-MB-361, 168 h, MDAMB361, breast, NS, 168 hours
  IC50: > 10000 nM
MDA-MB-415, 168 h, MDAMB415, breast, NS, 168 hours
  IC50: > 10000 nM
MDA-MB-436, 168 h, MDAMB436, breast, NS, 168 hours
  IC50: > 10000 nM
MDA-MB-453, MDAMB453 cell line
  EC50: 8.03 nM
  IC50: 10.4 nM
MDA-MB-468, 168 h, MDAMB468, breast, NS, 168 hours
  IC50: > 10000 nM
MES-SA, MESSA cell line
  EC50: 9 nM
  IC50: 14.3 nM
MIA PaCa-2, MIAPACA2 cell line
  EC50: 5.28 nM
  IC50: 7.02 nM
MKN-1, MKN1 cell line
  EC50: 4.33 nM
  IC50: 5.75 nM
MKN-45, MKN45 cell line
  EC50: 11 nM
  IC50: 13.5 nM
MOLT-4, MOLT4 cell line
  EC50: 0.508 nM
  IC50: 1.25 nM
MV4-11, MV411 cell line
  EC50: 3.92 nM
  IC50: 4.02 nM
Malme-3M, 168 h, MALME3M, skin, NS
  IC50: > 10000 nM
MeWo, 168 h, skin, NS
  IC50: > 10000 nM
NCI-H23, NCIH23 cell line
  EC50: 37.7 nM
  IC50: 42.7 nM
NCI-H69, NCIH69 cell line
  EC50: 7.14 nM
  IC50: 7.09 nM
NCI-H82, NCIH82 cell line
  EC50: 3.31 nM
  IC50: 3.54 nM
NCI-H209, NCIH209 cell line
  EC50: 1.48 nM
  IC50: 1.31 nM
NCI-H358, NCIH358 cell line
  EC50: 3.05 nM
  IC50: 6.57 nM
NCI-H441, 168 h, NCIH441, lung, adenocarcinoma, 168 hours
  IC50: > 10000 nM
NCI-H446, NCIH446 cell line
  EC50: 14.5 nM
  IC50: 119 nM
NCI-H460, NCIH460 cell line
  EC50: 11.1 nM
  IC50: 11.6 nM
NCI-H508, NCIH508 cell line
  EC50: 9.16 nM
  IC50: 10.2 nM
NCI-H520, NCIH520 cell line
  EC50: 5.06 nM
  IC50: 5.9 nM
NCI-H522, NCIH522 cell line
  EC50: 11.5 nM
  IC50: 17.4 nM
NCI-H524, NCIH524 cell line
  EC50: 4.98 nM
  IC50: 6.85 nM
NCI-H596, 168 h, NCIH596, lung, mixed adenosquamous carcinoma, 168 hours
  IC50: > 10000 nM
NCI-H647, NCIH647 cell line
  EC50: 6.04 nM
  IC50: 9.84 nM
NCI-H661, NCIH661 cell line
  EC50: 9.06 nM
  IC50: 9.73 nM
NCI-H716, NCIH716 cell line
  EC50: 5.77 nM
  IC50: 9.51 nM
NCI-H929, NCIH929 cell line
  EC50: 20.6 nM
  IC50: 34.5 nM
NCI-H1048, NCIH1048 cell line
  EC50: 0.508 nM
  IC50: 0.706 nM
NCI-H1092, NCIH1092 cell line
  EC50: 3.93 nM
  IC50: 7.16 nM
NCI-H1155, NCIH1155 cell line
  EC50: 0.884 nM
  IC50: 0.765 nM
NCI-H1299, NCIH1299 cell line
  EC50: 5.38 nM
  IC50: 7.5 nM
NCI-H1355, NCIH1355 cell line
  EC50: ≥ 10000 nM
  IC50: 20.6 nM
NCI-H1395, 168 h, NCIH1395, lung, adenocarcinoma, 168 hours
  IC50: > 10000 nM
NCI-H1436, NCIH1436 cell line
  EC50: ≥ 10000 nM
  IC50: 8.75 nM
NCI-H1437, NCIH1437 cell line
  EC50: 9.48 nM
  IC50: 13.1 nM
NCI-H1563, 168 h, NCIH1563, lung, adenocarcinoma, 168 hours
  IC50: > 10000 nM
NCI-H1573, 168 h, NCIH1573, lung, adenocarcinoma, 168 hours
  IC50: > 10000 nM
NCI-H1623, NCIH1623 cell line
  EC50: 8.13 nM
  IC50: 18.9 nM
NCI-H1650, 168 h, NCIH1650, lung, bronchioloalveolar adenocarcinoma, 168 hours
  IC50: > 10000 nM
NCI-H1666, NCIH1666 cell line
  EC50: 0.508 nM
  IC50: 1.17 nM
NCI-H1694, NCIH1694 cell line
  EC50: 0.508 nM
  IC50: 1.75 nM
NCI-H1703, NCIH1703 cell line
  EC50: 4.88 nM
  IC50: 8.05 nM
NCI-H1734, NCIH1734 cell line
  IC50: > 10000 nM
NCI-H1755, 168 h, NCIH1755, lung, adenocarcinoma, 168 hours
  IC50: > 10000 nM
NCI-H1793, NCIH1793 cell line
  EC50: 8.36 nM
  IC50: 15.3 nM
NCI-H1836, NCIH1836 cell line
  EC50: 4.88 nM
  IC50: 6.07 nM
NCI-H1838, 168 h, NCIH1838, lung, non-small cell carcinoma, 168 hours
  IC50: > 10000 nM
NCI-H1930, NCIH1930 cell line
  EC50: 6.62 nM
  IC50: 20 nM
